In PubChem BioAssay AID1963826 (Molecular Pharmacology Branch, DTP, NCI, 2024):
pIC50: −log10 of the molar value.

Tested on: 926638-142-R-J1-PDC complex spheroid viability
Assay: Anticancer human tumor 926638-142-R-J1-PDC patient-derived endometrial carcinoma cell line growth inhibition [POLQ]
Conditions: for pIC50: curve of first compound; for viability, T/C: stronger effect = lower value
Method in brief: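 Patient-derived tumour cells were co-cultured with HUVEC and mesenchymal stem cells as multicellular spheroids at 37 °C. They were treated with POLQ inhibitors (novobiocin, ART-558, RP6685) alone or combined with other agents. Top concentrations were at or near clinical Cmax (otherwise 10 microM; SN-38 at 1 microM), decreasing in half-log steps.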

[1] = second compound 0.0316 µM, first compound 0.0316 µM
[2] = second compound 0.0316 µM, first compound 0.1 µM
[3] = second compound 0.0316 µM, first compound 0.316 µM
[4] = second compound 0.0316 µM, first compound 1 µM
[5] = second compound 0.0316 µM, first compound 3.16 µM
[6] = second compound 0.0316 µM, first compound 10 µM
[7] = second compound 0.1 µM, first compound 0.0316 µM
[8] = second compound 0.1 µM, first compound 0.1 µM
[9] = second compound 0.1 µM, first compound 0.316 µM
[10] = second compound 0.1 µM, first compound 1 µM
[11] = second compound 0.1 µM, first compound 3.16 µM
[12] = second compound 0.1 µM, first compound 10 µM
[13] = second compound 0.316 µM, first compound 0.0316 µM
[14] = second compound 0.316 µM, first compound 0.1 µM
[15] = second compound 0.316 µM, first compound 0.316 µM
[16] = second compound 0.316 µM, first compound 1 µM
[17] = second compound 0.316 µM, first compound 3.16 µM
[18] = second compound 0.316 µM, first compound 10 µM
[19] = second compound 1 µM, first compound 0.0316 µM
[20] = second compound 1 µM, first compound 0.1 µM
[21] = second compound 1 µM, first compound 0.316 µM
[22] = second compound 1 µM, first compound 1 µM
[23] = second compound 1 µM, first compound 3.16 µM
[24] = second compound 1 µM, first compound 10 µM
[25] = second compound 3.16 µM, first compound 0.0316 µM
[26] = second compound 3.16 µM, first compound 0.1 µM
[27] = second compound 3.16 µM, first compound 0.316 µM
[28] = second compound 3.16 µM, first compound 1 µM
[29] = second compound 3.16 µM, first compound 3.16 µM
[30] = second compound 3.16 µM, first compound 10 µM
[31] = second compound 10 µM, first compound 0.0316 µM
[32] = second compound 10 µM, first compound 0.1 µM
[33] = second compound 10 µM, first compound 0.316 µM
[34] = second compound 10 µM, first compound 1 µM
[35] = second compound 10 µM, first compound 3.16 µM
[36] = second compound 10 µM, first compound 10 µM
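Note: spheroids exposed to drugs for one week before readout.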
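Throughout, for viability, T/C: percent viability relative to DMSO vehicle control wells set as 100%.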

SMILES: CC1COCCN1c1cc(-c2ccnn2C)c2ccnc(-c3ccn[nH]3)c2n1 (stereo unspecified) + COC1C(OC(N)=O)C(O)C(Oc2ccc3c(O)c(NC(=O)c4ccc(O)c(CC=C(C)C)c4)c(=O)oc3c2C)OC1(C)C
- pIC50 (second compound 0.0316 µM): 6.34
- pIC50 (second compound 0.1 µM): 6.39
- pIC50 (second compound 0.316 µM): 6.29
- pIC50 (second compound 1 µM): 6.27
- pIC50 (second compound 3.16 µM): 6.31
- pIC50 (second compound 10 µM): 6.25
- viability, T/C [1]: 111%
- viability, T/C [2]: 89.4%
- viability, T/C [3]: 58.2%
- viability, T/C [4]: 32.8%
- viability, T/C [5]: 12.9%
- viability, T/C [6]: 9.13%
- viability, T/C [7]: 89.4%
- viability, T/C [8]: 81.5%
- viability, T/C [9]: 53.2%
- viability, T/C [10]: 30.9%
- viability, T/C [11]: 11.5%
- viability, T/C [12]: 7.32%
- viability, T/C [13]: 107%
- viability, T/C [14]: 91.6%
- viability, T/C [15]: 68.8%
- viability, T/C [16]: 25.9%
- viability, T/C [17]: 13.6%
- viability, T/C [18]: 7.15%
- viability, T/C [19]: 96.3%
- viability, T/C [20]: 92.5%
- viability, T/C [21]: 67.6%
- viability, T/C [22]: 28.3%
- viability, T/C [23]: 11.3%
- viability, T/C [24]: 7.92%
- viability, T/C [25]: 90.6%
- viability, T/C [26]: 80.3%
- viability, T/C [27]: 64.5%
- viability, T/C [28]: 28.3%
- viability, T/C [29]: 15.1%
- viability, T/C [30]: 8.17%
- viability, T/C [31]: 91.5%
- viability, T/C [32]: 87.6%
- viability, T/C [33]: 66.8%
- viability, T/C [34]: 32.6%
- viability, T/C [35]: 13.8%
- viability, T/C [36]: 9.27%

SMILES: CC1COCCN1c1cc(C2(O)CC3CCC(C2)O3)c2cnn(-c3ccn[nH]3)c2n1 (stereo unspecified) + COC1C(OC(N)=O)C(O)C(Oc2ccc3c(O)c(NC(=O)c4ccc(O)c(CC=C(C)C)c4)c(=O)oc3c2C)OC1(C)C
- pIC50 (second compound 0.0316 µM): 6.67
- pIC50 (second compound 0.1 µM): 6.69
- pIC50 (second compound 0.316 µM): 6.70
- pIC50 (second compound 1 µM): 6.66
- pIC50 (second compound 3.16 µM): 6.65
- pIC50 (second compound 10 µM): 6.74
- viability, T/C [1]: 106%
- viability, T/C [2]: 74.5%
- viability, T/C [3]: 35.6%
- viability, T/C [4]: 17.5%
- viability, T/C [5]: 7.23%
- viability, T/C [6]: 1.82%
- viability, T/C [7]: 108%
- viability, T/C [8]: 64.9%
- viability, T/C [9]: 46%
- viability, T/C [10]: 12.8%
- viability, T/C [11]: 6.56%
- viability, T/C [12]: 1.94%
- viability, T/C [13]: 102%
- viability, T/C [14]: 69.1%
- viability, T/C [15]: 37.4%
- viability, T/C [16]: 16.5%
- viability, T/C [17]: 7.59%
- viability, T/C [18]: 1.6%
- viability, T/C [19]: 86.9%
- viability, T/C [20]: 75.8%
- viability, T/C [21]: 36.8%
- viability, T/C [22]: 12.9%
- viability, T/C [23]: 7.07%
- viability, T/C [24]: 1.87%
- viability, T/C [25]: 90.5%
- viability, T/C [26]: 77.7%
- viability, T/C [27]: 36.5%
- viability, T/C [28]: 15%
- viability, T/C [29]: 6.73%
- viability, T/C [30]: 2%
- viability, T/C [31]: 91.4%
- viability, T/C [32]: 69.4%
- viability, T/C [33]: 31.1%
- viability, T/C [34]: 13%
- viability, T/C [35]: 7.88%
- viability, T/C [36]: 1.74%

SMILES: CCc1cc2c(N3CCc4c(cc(Cn5ccnc5)cc4-c4cn(C)nc4C(F)(F)F)C3=O)cc(C)nc2c(OC)n1 + COC1C(OC(N)=O)C(O)C(Oc2ccc3c(O)c(NC(=O)c4ccc(O)c(CC=C(C)C)c4)c(=O)oc3c2C)OC1(C)C
- pIC50 (second compound 0.0316 µM): 6.40
- pIC50 (second compound 0.1 µM): 6.56
- pIC50 (second compound 0.316 µM): 6.50
- pIC50 (second compound 1 µM): 6.67
- pIC50 (second compound 3.16 µM): 6.61
- pIC50 (second compound 10 µM): 6.18
- viability, T/C [1]: 79.3%
- viability, T/C [2]: 65.2%
- viability, T/C [3]: 49.6%
- viability, T/C [4]: 42.6%
- viability, T/C [5]: 33.4%
- viability, T/C [6]: 23.4%
- viability, T/C [7]: 72.5%
- viability, T/C [8]: 73%
- viability, T/C [9]: 46.9%
- viability, T/C [10]: 27.6%
- viability, T/C [11]: 26%
- viability, T/C [12]: 23.8%
- viability, T/C [13]: 68%
- viability, T/C [14]: 52%
- viability, T/C [15]: 52.7%
- viability, T/C [16]: 43.6%
- viability, T/C [17]: 31.1%
- viability, T/C [18]: 23.5%
- viability, T/C [19]: 88.8%
- viability, T/C [20]: 60.7%
- viability, T/C [21]: 46.9%
- viability, T/C [22]: 31.2%
- viability, T/C [23]: 28.8%
- viability, T/C [24]: 28.9%
- viability, T/C [25]: 60.1%
- viability, T/C [26]: 58.4%
- viability, T/C [27]: 47.1%
- viability, T/C [28]: 35.8%
- viability, T/C [29]: 27.6%
- viability, T/C [30]: 21.6%
- viability, T/C [31]: 66.9%
- viability, T/C [32]: 65.8%
- viability, T/C [33]: 62.3%
- viability, T/C [34]: 43.1%
- viability, T/C [35]: 29.7%
- viability, T/C [36]: 25%
